This passage reports Ki results from patent US9732087B2, “Diamino-pyridine, pyrimidine, and pyridazine modulators of the histamine H4 receptor” (JANSSEN PHARMACEUTICA NV, priority 2008, dated 2017).

For orientation: Ki means the dissociation constant of the complex between target and ligand, obtained from inhibition or displacement.

Structures can show the parent of a compound that is named as a salt.

human H4 receptor, sequence (Q9H3N8 whole entry): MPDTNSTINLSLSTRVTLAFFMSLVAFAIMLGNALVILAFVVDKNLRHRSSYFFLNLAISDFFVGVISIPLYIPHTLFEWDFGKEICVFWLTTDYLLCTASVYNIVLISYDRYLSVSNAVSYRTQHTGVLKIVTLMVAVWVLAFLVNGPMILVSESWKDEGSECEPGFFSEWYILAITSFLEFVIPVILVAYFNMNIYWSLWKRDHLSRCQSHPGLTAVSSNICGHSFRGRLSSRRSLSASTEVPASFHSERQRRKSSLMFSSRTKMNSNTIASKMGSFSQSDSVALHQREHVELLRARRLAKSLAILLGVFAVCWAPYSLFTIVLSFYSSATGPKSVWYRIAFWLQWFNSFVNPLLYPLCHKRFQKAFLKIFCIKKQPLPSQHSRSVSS

The first test concerns the target human H4 receptor (Homo sapiens (Human), UniProt Q9H3N8). The experiment in a line: Binding assay on recombinant human histamine H4 receptor ([3H]histamine competition, SK-N-MC cell membranes). The settings on record: membranes harvested with 96 well Brandel system; [3H]histamine 10 nM; average of results; read-out: Brandel Ki. Here is the method:
Binding Assay on Recombinant Human Histamine H4Receptor
Cell pellets from SK-N-MC cells stably or transiently transfected with human H4 receptor (NCBI accession No. AF312230) were used for the binding assays. Cell pellets were homogenized in 50 mM Tris/5 mM EDTA buffer and supernatants from an 800 g spin were collected and recentrifuged at 30,000 g for 30 min. Pellets were rehomogenized in 50 mM Tris/5 mM EDTA buffer. […] Membranes were harvested by rapid filtration using the 96 well Brandel system (Table 1, Brandel) or a cell harvester (Table 1, Cell Harvester) using a Whatman GF/C filter or filter plates treated with 0.5% polyethylenimine (PEI), and washed 4 times with ice-cold 50 mM Tris/5 mM EDTA buffer. Filters were then dried, mixed with scintillant and radioactive counts were determined. […] Where activity is shown as greater than (>) a particular value, the value is the highest concentration tested.
Turning to `CC(C)CNc1cc(N2CCN(C)CC2)cnn1` [Example 101, 5-(4-Methylpiperazin-1-yl)-N-(2-methylpropyl)pyridazin-3-amine], the Ki was greater than 10000 nM.

The test is the same for the next values; noted with them: membranes harvested with cell harvester; [3H]histamine 10 nM; average of results; read-out: Cell Harvester Ki.
`NC1CN(c2ccnc(NCCCO)n2)C1` [Example 155, 3-{[4-(3-Aminoazetidin-1-yl)pyrimidin-2-yl]amino}propan-1-ol]: the inhibition constant Ki was determined as 745 nM.

`CN[C@@H]1CCN(c2ccnc(NCC3CCCC3)c2)C1` [Example 226, N-(Cyclopentylmethyl)-4-[(3R)-3-(methylamino)pyrrolidin-1-yl]pyridin-2-amine]: the Ki amounted to 3.81 nM.

Consider `CN[C@@H]1CCN(c2ccnc(NCc3ccc(OC)cc3)n2)C1` [Example 176, N-(4-Methoxybenzyl)-4-[(3R)-30(methylamino)pyrrolidin-1-yl]pyrimidin-2-amine], for which the inhibition constant Ki stood at 458 nM.

On to `CNC1CN(c2ccnc(NC3CCCC3)n2)C1` [Example 172, N-Cyolopentyl-4-[3-(methylamino)azetidin-1-yl]pyrimidin-2-amine], for which the inhibition constant Ki came out at 13.7 nM.

As for `c1cc(N2CCNCC2)cc(NCC2CCCO2)n1` (stereo not drawn) [Example 39, 4-Piperazin-1-yl-N-(tetrahydrofuran-2-ylmethyl)pyridin-2-amine], the Ki was determined as 554 nM.

Consider `CN1CCN(c2ccnc(NCC(C)(C)O)c2)CC1` [Example 241, 2-Methyl-1-{[4-(4-methylpiperazin-1-yl)pyridin-2-yl]amino}propan-2-ol], for which the Ki was found to be 837 nM.

Regarding `C[C@@H]1[C@@H](Nc2nccc(N3CCN(C)CC3)n2)C[C@H]2C[C@@H]1C2(C)C` [Example 168, 4-(4-Methylpiperazin-1-yl)-N-[(1S,2S,3S,5R)-2,6,6-trimethylbicyclo[3.1.1]hept-3-yl]pyrimidin-2-amine], the inhibitory constant (Ki) was found to be 483 nM.

In the case of `CCCCNc1cc(N2CCNCC2)cnn1` [Example 356, N-Butyl-5-piperazin-1-ylpyridazin-3-amine], the inhibitory constant (Ki) is 1600 nM.

As for `CN1CCN(c2ccnc(NC3C4C[C@H]5C[C@@H](C4)C[C@@H]3C5)c2)CC1` (stereo partly drawn) [Example 207, Adamantan-2-yl-[4-(4-methyl-piperazin-1-yl)-pyridin-2-yl]-amine], the inhibition constant (Ki) stood at 191 nM.

Regarding `CN[C@@H]1CCN(c2ccnc(NCC3CCCC3)n2)C1` [Example 121, N-(Cyclopentylmethyl)-4-[(3R)-3-(methylamino)pyrrolidin-1-yl]pyrimidin-2-amine], the inhibitory constant (Ki) turned out to be 1.57 nM.

In the case of `CCCCNc1nccc(N2CCN(C)CC2)n1` [Example 47, N-Butyl-4-(4-methylpiperazin-1-yl)pyrimidin-2-amine], the Ki turned out to be 33.2 nM.

On to `CNC1CN(c2ccnc(N[C@H](C)C3CCCCC3)n2)C1` [Example 113, N-[(1R)-1-Cyclohexylethyl]-4-[3-(methylamino)azetidin-1-yl]pyrimidin-2-amine], for which the Ki is 139 nM.

`N[C@@H]1CCN(c2cnnc(NCC3CCCC3)c2)C1` [Example 359, 5-[(3R)-3-Aminopyrrolidin-1-yl]-N-(cyclopentylmethyl)pyridazin-3-amine]: the Ki was determined as 161 nM.

Regarding `CN[C@@H]1CCN(c2ccnc(NCC3CCCO3)n2)C1` (stereo partly drawn) [Example 81, [4-(3R)-(3-Methylamino-pyrrolidin-1-yl)-pyrimidin-2-yl]-(tetrahydro-furan-2-ylmethyl)-amine], the inhibitory constant (Ki) came out at 24.7 nM.

For the molecule `c1cc(N2C[C@H]3CCN[C@H]3C2)cc(NC2CCOCC2)n1` [Example 277, 4-[(3aR,6aR)-Hexahydropyrrolo[3,4-b]pyrrol-5(1H)-yl]-N-(tetrahydro-2H-pyran-4-yl)pyridin-2-amine], the Ki is 97 nM.

`CNC1CN(c2ccnc(NC3CC3)c2)C1` [Example 281, N-Cyclopropyl-4-[3-(methylamino)azetidin-1-yl]pyridin-2-amine]: the Ki is 21.3 nM.

As to `CC1(C)[C@@H]2CC[C@@]1(C)[C@@H](Nc1nccc(N3C[C@H]4CCN[C@H]4C3)n1)C2` [Example 125, 4-[(3aR,6aR)-Hexahydropyrrolo[3,4-b]pyrrol-5(1H)-yl]-N-[(1R,2S,4R)-1,7,7-trimethylbicyclo[2.2.1]hept-2-yl]pyrimidin-2-amine], the Ki stood at 2.1 nM.

With `c1cc(N2C[C@H]3CCN[C@H]3C2)cc(NC2CCCC2)n1` [Example 262, N-Cyclopentyl-4-[(3aR,6aR)-hexahydropyrrolo[3,4-b]pyrrol-5(1H)-yl]pyridin-2-amine], the inhibition constant Ki was determined as 22.1 nM.

With `N[C@@H]1CCN(c2ccnc(NC3CC4CCC3C4)n2)C1` (stereo partly drawn) [Example 43, 4-[(3R)-3-Aminopyrrolidin-1-yl]-N-[bicyclo[2.2.1]hept-2-yl]pyrimidin-2-amine], the inhibition constant (Ki) turned out to be 3.3 nM.

`N[C@@H]1CCN(c2ccnc(NCC3CCCC3)n2)C1` [Example 123, 4-[(3R)-3-Aminopyrrolidin-1-yl]-N-(cyclopentylmethyl)pyrimidin-2-amine]: the Ki amounted to 2.04 nM.

Turning to `CNC1CN(c2ccnc(NCCCO)c2)C1` [Example 283, 3-({4-[3-(Methylamino)azetidin-1-yl]pyridin-2-yl}amino)propan-1-ol], the inhibitory constant (Ki) worked out at 162 nM.

Take `N[C@@H]1CCN(c2cnnc(NCC3CC4CCC3C4)c2)C1` (stereo partly drawn) [Example 312, 5-[(3R)-3-Aminopyrrolidin-1-yl]-N-(bicyclo[2.2.1]hept-2-ylmethyl)pyridazin-3-amine]: the Ki was 547 nM.

On to `CC(C)CNc1cc(N2CCN(C)CC2)cnn1` [Example 101, 5-(4-Methylpiperazin-1-yl)-N-(2-methylpropyl)pyridazin-3-amine], for which the Ki is greater than 10000 nM.

Regarding `CN[C@@H]1CCN(c2ccnc(N[C@H]3C[C@H]4CC[C@]3(C)C4(C)C)n2)C1` [Example 190, 4-[(3R)-3-(Methylamino)pyrrolidin-1-yl]-N-[(1R,2S,4R)-1,7,7-trimethylbicyclo[2.2.1]hept-2-yl]pyrimidin-2-amine], the Ki is 1.68 nM.

Regarding `N[C@@H]1CCN(c2cnnc(NCc3ccccn3)c2)C1` [Example 337, 5-[(3R)-3-Aminopyrrolidin-1-yl]-N-(pyridin-2-ylmethyl)pyridazin-3-amine], the Ki is greater than 10000 nM.

As for `CN[C@@H]1CCN(c2ccnc(NCC3CCCO3)c2)C1` (stereo partly drawn) [Example 6, 4-[(3R)-3-(Methylamino)pyrrolidin-1-yl]-N-[tetrahydrofuran-2-ylmethyl]pyridin-2-amine dihydrochloride], the Ki is 35.1 nM.

For the molecule `CN[C@@H]1CCN(c2ccnc(NCCOC)c2)C1` [Example 42, N-(2-Methoxyethyl)-4-[(3R)-3-(methylamino)pyrrolidin-1-yl]pyridin-2-amine], the Ki was found to be 31.8 nM.

For `CC1C(Nc2cc(N3C[C@H]4CCN[C@H]4C3)ccn2)C[C@H]2C[C@@H]1C2(C)C` (stereo partly drawn) [Example 287, 4-[(3aR,6aR)-Hexahydropyrrolo[3,4-b]pyrrol-5(1H)-yl]-N-[(1S,5R)-2,6,6-trimethylbicyclo[3.1.1]hept-3-yl]pyridin-2-amine], the Ki stood at 98.9 nM.

`c1cc(N2CCNCC2)nc(NC2CC3CCC2C3)n1` (stereo not drawn) [Example 133, N-Bicyclo[2.2.1]hept-2-yl-4-piperazin-1-ylpyrimidin-2-amine]: the Ki came out at 129 nM.

With `N[C@@H]1CCN(c2ccnc(NCCc3ccccc3)n2)C1` [Example 117, 4-[(3R)-3-Aminopyrrolidin-1-yl]-N-(2-phenylethyl)pyrimidin-2-amine], the Ki was 247 nM.

`CN1CCN(c2ccnc(NCC3CC3)n2)CC1` [Example 45, N-(Cyclopropylmethyl)-4-(4-methylpiperazin-1-yl)pyrimidin-2-amine]: the Ki came out at 7.1 nM.

Regarding `CN[C@@H]1CCN(c2cnnc(NCc3ccc(C)cc3)c2)C1` [Example 384, 5-[(3R)-3-(Methylamino)pyrrolidin-1-yl]-N-(4-methylbenzyl)pyridazin-3-amine], the inhibition constant (Ki) stood at 2000 nM.

In the case of `CN[C@@H]1CCN(c2ccnc(NCCCO)n2)C1` [Example 167, 3-({4-[(3R)-3-(Methylamine)pyrrolidin-1-yl]pyrimidin-2-yl}amino)propan-1-ol], the Ki was found to be 34.9 nM.

Turning to `CC(C)(CO)CNc1nccc(N2CC(N)C2)n1` [Example 151, 3-{[4-(3-Aminoazetidin-1-yl)pyrimidin-2-yl]amino}-2,2-dimethylpropan-1-ol], the inhibition constant (Ki) was 1460 nM.

On to `CN[C@H]1CCN(c2cnnc(NCC(C)(C)CO)c2)C1` [Example 383, 2,2-Dimethyl-3-({5-[(3S)-3-(methylamino)pyrrolidin-1-yl]pyridazin-3-yl}amino)propan-1-ol], for which the inhibitory constant (Ki) was 596 nM.

Turning to `CN[C@H]1CCN(c2cnnc(NCCOC)c2)C1` [Example 376, N-(2-Methoxyethyl)-5-[(3S)-3-(methylamino)pyrrolidin-1-yl]pyridazin-3-amine], the inhibitory constant (Ki) was greater than 10000 nM.

In the case of `CNC1CCN(c2cnnc(NCc3ccccn3)c2)C1` (stereo in doubt) [Example 402, 5-[(3S)-3-(Methylamino)pyrrolidin-1-yl]-N-(pyridin-2-ylmethyl)pyridazin-3-amine], the Ki is greater than 10000 nM.

With `CNC1CN(c2cnnc(NC3CCCCC3)c2)C1` [Example 325, N-Cyclohexyl-5-[3-(methylamino)azetidin-1-yl]pyridazin-3-amine], the Ki amounted to 798 nM.

On to `CN[C@@H]1CCN(c2ccnc(N[C@@H]3CCOC3)c2)C1` [Example 5, 4-[(3R)-3-(Methylamino)pyrrolidin-1-yl]-N-[(3R)-tetrahydrofuran-3-yl]pyridin-2-amine dihydrochloride], for which the inhibitory constant (Ki) came out at 8.9 nM.

For the molecule `CN[C@@H]1CCN(c2ccnc(NC(C)C)n2)C1` [Example 78, Isopropyl-[4-(3R)-(3-methylamino-pyrrolidin-1-yl)-pyrimidin-2-yl]-amine], the Ki was found to be 6 nM.

Take `c1cc(N2CCNCC2)nc(NC2CC2)n1` [Example 112, N-Cyclopropyl-4-piperazin-1-ylpyrimidin-2-amine]: the Ki worked out at 236 nM.
